Several values for one entry are separate records, joined by “and”; a condition that tells them apart may be missing. Identical values can stand only once. Like-named read-outs stand apart in the source and are kept apart here.
Legend:
[1] = Animal Experiment: serum concentration and bioavailability of OMP in rabbits (I.V., oral, rectum); format: in vivo, albino rabbits; details: 10 mg/kg; for bioavailability: BA (bioavailability)
Method: Using the same method as in Reference 1, one composition using water-Soluble base was manufactured by the following formula; 20 mg OMP. 10 mg arginine and 970 mg PEG 4000, and another composition using lipid-soluble base was manufactured by the following formula; 20 mg OMP, 10 mg arginine and 970 mg Witepsol H-15.
Object: 36 male healthy albino rabbits weighing 1.5-2.3 kg.
Method: before fasting, feed and water were freely provided for eating and rabbits were confined to a wire-box while giving them feed in a constant condition for 4 days. After that, their fasting was made for 48 hours (during the fasting, the rabbits could freely drink 10% dextrose solution.)
For comparison test, 4 mg/ml I.V. solution was manufactured in advance by mixing 400 mg OMP, 20 ml polyethylene glycol 4000, and 80 ml buffer solution of 0.1 mol sodium bicarbonate. 5 ml solution per rabbit was administered to its ear's vein.
Then, through the esophagus of rabbit, Levine tube in diameter of 5 mm was inserted by 30 cm for administering oral OMP capsules wrapped in paraffin film. To reduce friction, vaseline was applied around the surface of the tube and through a syringe connected to the opposite end of the tube, 30 ml water was injected and, by the water pressure, paraffin film was broken to administer the capsule into intestine.
As the feces of the rabbit were not completely removable even in 48-hour fasting, Levine tube having a thickness of 5 mm was used to thrust feces up to the upper part of rectum by 15 cm for the separate of administration of said two kinds of compositions. Then, inserted into the anus, was a cotton wrapped in vinyl tape having a length of 2 cm, fixed it with a clip so as to prevent any leaking of drug solution.
By using xylene, the venous blood vessel of rabbit's ear was extended to collect some venous blood with a heparinized 3 cc syringe. Said syringe was already treated by soaking its wall with 1000 I.U. heparin. Then, 3 cc of said collected blood sample (10,000 rpm, 10 secs) was centrigued to obtain 1 ml plasma.
Add 1 ml of said plasma sample to […] intra-standard solution, 3 ml dichloromethane, 3 ml hexaine and 2 ml of 0.1 mol sodium bicarbonate buffer solution. Then, after agitation for 30 secs, centrifuge this mixture in 2000 rpm for 5 mins to separate into organic layer (upper layer) and plasma layer (lower layer).
Put the centrifuged test tube into ice-contained methanol to freeze the plasma layer. Thereafter, take 5 ml organic solvent from the said solution and, under reduced pressure, evaporate the organic solvent by nitrogen gas. Then add 300 μl mobile phase into the residue and after agitation for 30 secs again, centrifuge the mixture in 2000 rpm for 2 mins and conduct the assay by the HPLC analysis (injected 50 μl) through the comparison of height ratio with standard solution.
Cmax is a peak serum concentration;
AUC is an area under the curve describing serum concentration-time; and […]

[2] = cited from earlier work
[3] = OMP Stability Based Upon Kinds of Stabilizer (colour change under severe condition); format: physicochemical; details: Reference 2 result in words
From the text: As shown in the following table 2, PEG 4000 and Witepsol H-15 were used as bases for the manufacture of said composition; as a basic amino acid, arginine was used. The stability of said manufactured compositions was observed under a severe condition. As a diffusing medium, micro crystalline cellulose (brandname: Avicel) was used, while using sodium laurylsulfate as a releasing agent.

[4] = OMP Stability Based Upon Kinds of Base (colour change at room temperature); details: Reference 1 result in words
[5] = rabbit, in vivo, po, serum concentration

SMILES: COc1ccc2[nH]c([S+]([O-])Cc3ncc(C)c(OC)c3C)nc2c1 (centres unmarked) [OMP, Omeprazole]
- serum concentration ([1]; I.V., 20 mg OMP per 2 kg, 1 min, individual animals): 110.0 µg/mL and 100.0 µg/mL and 91.5 µg/mL and 99.0 µg/mL
- serum concentration ([1]; I.V., 20 mg OMP per 2 kg, 5 min, individual animals): 47.8 µg/mL and 63.3 µg/mL and 58.7 µg/mL and 56.5 µg/mL
- serum concentration ([1]; I.V., 20 mg OMP per 2 kg, 15 min, individual animals): 23.8 µg/mL and 36.8 µg/mL and 24.5 µg/mL
- serum concentration ([1]; I.V., 20 mg OMP per 2 kg, 30 min, individual animals): 21.0 µg/mL and 16.7 µg/mL and 16.2 µg/mL
- serum concentration ([1]; I.V., 20 mg OMP per 2 kg, 60 min, individual animals): 9.1 µg/mL and 11.7 µg/mL and 6.5 µg/mL
- serum concentration ([1]; I.V., 20 mg OMP per 2 kg, 120 min, individual animals): 4.6 μg/ml and 4.2 μg/ml and 4.4 μg/ml (2×)
- serum concentration ([1]; I.V., 20 mg OMP per 2 kg, 180 min, individual animals): 2.2 µg/mL and 2.1 µg/mL and 2.0 µg/mL
- serum concentration ([1]; oral, 20 mg OMP per 2 kg, 1 hr, individual animals, 60 min): 0.300 µg/mL and 0.492 µg/mL and 0.270 µg/mL and 0.295 µg/mL
- serum concentration ([1]; oral, 20 mg OMP per 2 kg, 4 hr, individual animals, 240 min): 0.375 µg/mL and 0.376 µg/mL
- serum concentration ([1]; oral, 20 mg OMP per 2 kg, 5 hr, individual animals, 300 min): 0.432 µg/mL
- serum concentration ([1]; oral, 20 mg OMP per 2 kg, 7 hr, individual animals, 420 min): 0.450 µg/mL and 0.409 µg/mL and 0.506 µg/mL and 0.400 µg/mL
- serum concentration ([1]; oral, 20 mg OMP per 2 kg, 9 hr, individual animals, 540 min): 0.360 µg/mL and 0.373 µg/mL and 0.365 µg/mL
- serum concentration ([1]; oral, 20 mg OMP per 2 kg, 11 hr, individual animals, 660 min): 0.038 µg/mL and 0.070 µg/mL and 0.171 µg/mL and 0.176 µg/mL and 0.053 µg/mL
- Tmax ([1]; oral, 20 mg OMP per 2 kg, individual animals): 5 h
- AUC ([1]; rabbit, in vivo, iv): 33200 ng·h/mL
- AUC ([1]; rabbit, in vivo, iv, average): 35200 ng·h/mL
- concentration at 0.25 h ([1]; rabbit, in vivo, iv, serum concentration): 16400 ng/mL
- serum concentration ([1]; rabbit, in vivo, po, 4 h): 0.531 µg/mL
- AUC ([1]; rabbit, in vivo, po): 6070 ng·h/mL
- AUC ([1]; rabbit, in vivo, po, average): 5980 ng·h/mL
- bioavailability ([1]; rabbit, in vivo, po): 17.2%
- bioavailability ([1]; rabbit, in vivo, po, average): 17%
- Cmax ([1]; rabbit, in vivo, po): 591 ng/mL
- Cmax ([1]; rabbit, in vivo, po, average): 598 ng/mL
- concentration at 4 h [1, 5]: 591 ng/mL
- concentration at 5 h [1, 5]: 527 ng/mL
- concentration at 9 h [1, 5]: 356 ng/mL
- concentration at 1 min ([1]; rabbit, serum, iv, I.V., 20 mg OMP per 2 kg, 1 min, average, read-out: serum concentration, average): 101000 ng/mL
- concentration at 1 min ([1]; rabbit, serum, iv, I.V., 20 mg OMP per 2 kg, 1 min, individual animals, read-out: serum concentration): 104000 ng/mL
- concentration at 5 min ([1]; rabbit, serum, iv, I.V., 20 mg OMP per 2 kg, 5 min, average, read-out: serum concentration, average): 54400 ng/mL
- concentration at 5 min ([1]; rabbit, serum, iv, I.V., 20 mg OMP per 2 kg, 5 min, individual animals, read-out: serum concentration): 45900 ng/mL
- concentration at 0.25 h ([1]; rabbit, serum, iv, I.V., 20 mg OMP per 2 kg, 15 min, average, read-out: serum concentration, average): 25600 ng/mL
- concentration at 0.25 h ([1]; rabbit, serum, iv, I.V., 20 mg OMP per 2 kg, 15 min, individual animals, read-out: serum concentration): 26400 ng/mL
- concentration at 0.5 h ([1]; rabbit, serum, iv, I.V., 20 mg OMP per 2 kg, 30 min, average, read-out: serum concentration, average): 16700 ng/mL
- concentration at 0.5 h ([1]; rabbit, serum, iv, I.V., 20 mg OMP per 2 kg, 30 min, individual animals, read-out: serum concentration): 12800 ng/mL
- concentration at 1 h ([1]; rabbit, serum, iv, I.V., 20 mg OMP per 2 kg, 60 min, average, read-out: serum concentration, average): 8800 ng/mL
- concentration at 1 h ([1]; rabbit, serum, iv, I.V., 20 mg OMP per 2 kg, 60 min, individual animals, read-out: serum concentration): 7800 ng/mL
- concentration at 2 h ([1]; rabbit, serum, iv, I.V., 20 mg OMP per 2 kg, 120 min, average, read-out: serum concentration, average): 4700 ng/mL
- concentration at 2 h ([1]; rabbit, serum, iv, I.V., 20 mg OMP per 2 kg, 120 min, individual animals, read-out: serum concentration): 5800 ng/mL
- concentration at 3 h ([1]; rabbit, serum, iv, I.V., 20 mg OMP per 2 kg, 180 min, average, read-out: serum concentration, average): 2100 ng/mL
- concentration at 3 h ([1]; rabbit, serum, iv, I.V., 20 mg OMP per 2 kg, 180 min, individual animals, read-out: serum concentration): 2000 ng/mL
- concentration at 11 h ([1]; rabbit, serum, po, 20 mg OMP per 2 kg, 11 hr, average): 102 ng/mL
- concentration at 1 h ([1]; rabbit, serum, po, oral, 20 mg OMP per 2 kg, 1 hr, average, read-out: serum concentration, average): 330 ng/mL
- concentration at 1 h ([1]; rabbit, serum, po, oral, 20 mg OMP per 2 kg, 1 hr, individual animals, read-out: serum concentration): 293 ng/mL
- concentration at 2 h ([1]; rabbit, serum, po, oral, 20 mg OMP per 2 kg, 2 hr, average, read-out: serum concentration, average): 455 ng/mL
- concentration at 2 h ([1]; rabbit, serum, po, oral, 20 mg OMP per 2 kg, 2 hr, individual animals, read-out: serum concentration): 369 ng/mL
- concentration at 3 h ([1]; rabbit, serum, po, oral, 20 mg OMP per 2 kg, 3 hr, average, read-out: serum concentration, average): 413 ng/mL
- concentration at 3 h ([1]; rabbit, serum, po, oral, 20 mg OMP per 2 kg, 3 hr, individual animals, read-out: serum concentration): 425 ng/mL
- concentration at 4 h ([1]; rabbit, serum, po, oral, 20 mg OMP per 2 kg, 4 hr, average, read-out: serum concentration, average): 477 ng/mL
- concentration at 4 h ([1]; rabbit, serum, po, oral, 20 mg OMP per 2 kg, 4 hr, individual animals, read-out: serum concentration): 410 ng/mL
- concentration at 5 h ([1]; rabbit, serum, po, oral, 20 mg OMP per 2 kg, 5 hr, average, read-out: serum concentration, average): 550 ng/mL
- concentration at 5 h ([1]; rabbit, serum, po, oral, 20 mg OMP per 2 kg, 5 hr, individual animals, read-out: serum concentration): 447 ng/mL
- concentration at 7 h ([1]; rabbit, serum, po, oral, 20 mg OMP per 2 kg, 7 hr, average, read-out: serum concentration, average): 457 ng/mL
- concentration at 7 h ([1]; rabbit, serum, po, oral, 20 mg OMP per 2 kg, 7 hr, individual animals, read-out: serum concentration): 521 ng/mL
- concentration at 9 h ([1]; rabbit, serum, po, oral, 20 mg OMP per 2 kg, 9 hr, average, read-out: serum concentration, average): 357 ng/mL
- concentration at 9 h ([1]; rabbit, serum, po, oral, 20 mg OMP per 2 kg, 9 hr, individual animals, read-out: serum concentration): 341 ng/mL
- Tmax ([1]; rabbit, serum, po, oral, 20 mg OMP per 2 kg, individual animals, read-out: Tmax): 4 h
- half life ([2]; neutral pH): about 14 hrs
- decomposition ([2]; pH less than 4.0): rapid decomposition
- stability ([2]; pH more than 7.0): very stable

SMILES: N=C(N)NCCC[C@H](N)C(=O)O [arginine]
- stabilizing effect [3]: better stabilizing effect than sodium phosphate
- stability / contribution to stabilization [4]: stability was more increased

From patent publication US5219870A, “Omeprazole compositions designed for administration in rectum” (priority 1990, dated 1993)
